Results: patent US8846669B2, “Oxazolidinone derivative and medical composition containing same” (Legochem Biosciences, Inc., priority 2011, dated 2014)
Values after ≈ are worked out from the molar mass of the structure shown. Like-named read-outs stand apart in the source and are kept apart here.

Columns and labels:
Experiment in all cases: In vitro antibacterial activity, broth microdilution MIC90
Format in all cases: cell-based
Enterococcus faecalis = conditions: Enterococcus faecalis
Method: (§1) MIC90 was measured by broth microdilution method based on CLSI standards [reference: Clinical and Laboratory Standards Institute Document. (2000) Methods for Dilution Antimicrobial Susceptibility Test for Bacteria that Grow Aerobically-Fifth Edition: M7-A5. CLSI, Villanova, Pa.].
(§2) Activities of 12 strains including Staphylococcus aureus, Methicillin Resistant Staphylococcus aureus, Staphylococcus epidermidis, Methicillin Resistant Staphylococcus epidermidis, Enterococcus faecalis, Vancomycin Resistant Enterococcus faecalis, Linezolid and Vancomycin Resistant Enterococcus faecalis, Enterococcus faecium, Vancomycin Resistant Enterococcus faecium, Linezolid and Vancomycin Resistant Enterococcus faecium, and Moraxella catarrhalis, were measured, and results are shown in Table 1 below.
(§3) The final concentration of test material in the antibacterial test was from 0.063 μg/mL (minimum) to 128 μg/mL (maximum), and the final concentration of DMSO used as an excipient was 2.5% (V/V). Linezolid represented by Formula B below (manufactured by Pfizer) was used as a control and bacterial activity thereof was compared with those of the test materials.

Staphylococcus aureus = conditions: Staphylococcus aureus
Method: as §1, §2, §3

[1] = system: Vancomycin Resistant Enterococcus faecalis; conditions: Enterococcus faecalis
Method: as §1, §2, §3

[2] = system: Linezolid and Vancomycin Resistant Enterococcus faecium (strain 11); conditions: Enterococcus faecium
Method: as §1, §2, §3

[3] = system: Linezolid and Vancomycin Resistant Enterococcus faecium (strain 10); conditions: Enterococcus faecium
Method: as §1, §2, §3

[4] = system: Methicillin Resistant Staphylococcus epidermidis; conditions: Staphylococcus epidermidis
Method: as §1, §2, §3

[5] = system: Staphylococcus epidermidis; conditions: Staphylococcus epidermidis
Method: as §1, §2, §3

[6] = system: Linezolid and Vancomycin Resistant Enterococcus faecalis; conditions: for MIC90: Enterococcus faecalis
Method: as §1, §2, §3

[7] = system: Vancomycin Resistant Enterococcus faecium; conditions: Enterococcus faecium
Method: as §1, §2, §3

[8] = system: Methicillin Resistant Staphylococcus aureus; conditions: Staphylococcus aureus
Method: as §1, §2, §3

Enterococcus faecium = conditions: Enterococcus faecium
Method: as §1, §2, §3

Moraxella catarrhalis = conditions: Moraxella catarrhalis
Method: as §1, §2, §3

SMILES	MIC90 (Enterococcus faecalis)	MIC90 (Staphylococcus aureus)	MIC90 [1]	MIC90 [2]	MIC90 [3]	MIC90 [4]	MIC90 [5]	MIC90 [6]	MIC90 [7]	MIC90 [8]	MIC90 (Enterococcus faecium)	MIC90 (Moraxella catarrhalis)	other results
CC(=O)NC[C@H]1CN(c2ccc(-c3ccc(N4C=NN(CC(=O)OC(C)(C)C)CC4)nc3)c(F)c2)C(=O)O1 [Compound 9]	1 µg/mL (≈ 1.9 µM)	1 µg/mL (≈ 1.9 µM)	2 µg/mL (≈ 3.8 µM)	8 µg/mL (≈ 15.2 µM)	8 µg/mL (≈ 15.2 µM)	4 µg/mL (≈ 7.6 µM)	1 µg/mL (≈ 1.9 µM)	8 µg/mL (≈ 15.2 µM)	2 µg/mL (≈ 3.8 µM)	4 µg/mL (≈ 7.6 µM)	2 µg/mL (≈ 3.8 µM)	–	–
CC(=O)NC[C@H]1CN(c2ccc(-c3ccc(N4C=NN(CC(=O)O)CC4)nc3)c(F)c2)C(=O)O1 [Compound 10]	1 µg/mL (≈ 2.13 µM)	1 µg/mL (≈ 2.13 µM)	2 µg/mL (≈ 4.25 µM)	8 µg/mL (≈ 17 µM)	8 µg/mL (≈ 17 µM)	2 µg/mL (≈ 4.25 µM)	1 µg/mL (≈ 2.13 µM)	8 µg/mL (≈ 17 µM)	2 µg/mL (≈ 4.25 µM)	2 µg/mL (≈ 4.25 µM)	1 µg/mL (≈ 2.13 µM)	–	–
CC(=O)NC[C@H]1CN(c2ccc(-c3ccc(N4C=NN(C(=O)CO)CC4)nc3)c(F)c2)C(=O)O1 [Compound 11]	0.125 µg/mL (≈ 0.266 µM)	0.063 µg/mL (≈ 0.134 µM)	0.125 µg/mL (≈ 0.266 µM)	1 µg/mL (≈ 2.13 µM)	0.5 µg/mL (≈ 1.06 µM)	0.25 µg/mL (≈ 0.531 µM)	0.063 µg/mL (≈ 0.134 µM)	0.5 µg/mL (≈ 1.06 µM)	0.125 µg/mL (≈ 0.266 µM)	0.25 µg/mL (≈ 0.531 µM)	0.063 µg/mL (≈ 0.134 µM)	1 µg/mL (≈ 2.13 µM)	antibacterial activity against linezolid-resistant bacteria (in words) ([6]; Enterococcus faecalis and Enterococcus faecium which are resistant to linezolid): very high antibacterial activity
CC(=O)NC[C@H]1CN(c2ccc(-c3ccc(N4C=NN(C(=O)COC(C)=O)CC4)nc3)c(F)c2)C(=O)O1 [Compound 12]	0.125 µg/mL (≈ 0.244 µM)	0.125 µg/mL (≈ 0.244 µM)	0.25 µg/mL (≈ 0.488 µM)	1 µg/mL (≈ 1.95 µM)	1 µg/mL (≈ 1.95 µM)	0.25 µg/mL (≈ 0.488 µM)	0.125 µg/mL (≈ 0.244 µM)	1 µg/mL (≈ 1.95 µM)	0.25 µg/mL (≈ 0.488 µM)	0.25 µg/mL (≈ 0.488 µM)	0.063 µg/mL (≈ 0.123 µM)	0.5 µg/mL (≈ 0.976 µM)	–
CC(=O)NC[C@H]1CN(c2ccc(-c3ccc(N4C=NN(C(=O)COC(=O)CCC(=O)O)CC4)nc3)c(F)c2)C(=O)O1 [Compound 13]	–	–	–	–	–	–	–	–	–	–	–	–	MIC90 (Enterococcus faecalis; strain 5, E. faecalis, read-out: MIC90): 1 µg/mL (≈ 1.75 µM); MIC90 (Staphylococcus aureus; strain 1, S. aureus, read-out: MIC90): 1 µg/mL (≈ 1.75 µM); MIC90 ([1]; strain 6, E. faecalis VanA, read-out: MIC90): 1 µg/mL (≈ 1.75 µM); MIC90 ([2]; strain 11, E. faecium VanA LR, read-out: MIC90): 2 µg/mL (≈ 3.51 µM); MIC90 ([3]; strain 10, E. faecium VanA LR, read-out: MIC90): 2 µg/mL (≈ 3.51 µM); MIC90 ([4]; strain 4, S. epidermidis MR, read-out: MIC90): 2 µg/mL (≈ 3.51 µM); MIC90 ([5]; strain 3, S. epidermidis, read-out: MIC90): 1 µg/mL (≈ 1.75 µM); MIC90 ([6]; strain 7, E. faecalis VanA LR, read-out: MIC90): 2 µg/mL (≈ 3.51 µM); MIC90 ([7]; strain 9, E. faecium VanA, read-out: MIC90): 1 µg/mL (≈ 1.75 µM); MIC90 ([8]; strain 2, S. aureus MR, read-out: MIC90): 2 µg/mL (≈ 3.51 µM); MIC90 (Enterococcus faecium; strain 8, E. faecium, read-out: MIC90): 2 µg/mL (≈ 3.51 µM); MIC90 (Moraxella catarrhalis; strain 12, M. catarrhalis, read-out: MIC90): 2 µg/mL (≈ 3.51 µM)
CNC(=O)N1CCN(c2ccc(-c3ccc(N4C[C@H](CNC(C)=O)OC4=O)cc3F)cn2)C=N1 [Compound 16]	0.25 µg/mL (≈ 0.533 µM)	0.25 µg/mL (≈ 0.533 µM)	0.5 µg/mL (≈ 1.07 µM)	2 µg/mL (≈ 4.26 µM)	2 µg/mL (≈ 4.26 µM)	1 µg/mL (≈ 2.13 µM)	0.25 µg/mL (≈ 0.533 µM)	1 µg/mL (≈ 2.13 µM)	0.5 µg/mL (≈ 1.07 µM)	1 µg/mL (≈ 2.13 µM)	0.5 µg/mL (≈ 1.07 µM)	2 µg/mL (≈ 4.26 µM)	–
CC(=O)NC[C@H]1CN(c2ccc(-c3ccc(N4C=NN(C(N)=O)CC4)nc3)c(F)c2)C(=O)O1 [Compound 17]	0.25 µg/mL (≈ 0.549 µM)	0.125 µg/mL (≈ 0.274 µM)	0.25 µg/mL (≈ 0.549 µM)	2 µg/mL (≈ 4.39 µM)	2 µg/mL (≈ 4.39 µM)	0.5 µg/mL (≈ 1.1 µM)	0.25 µg/mL (≈ 0.549 µM)	1 µg/mL (≈ 2.2 µM)	0.25 µg/mL (≈ 0.549 µM)	0.5 µg/mL (≈ 1.1 µM)	0.25 µg/mL (≈ 0.549 µM)	2 µg/mL (≈ 4.39 µM)	–
CC(=O)NC[C@H]1CN(c2ccc(-c3ccc(N4C=NN(C(=O)CN)CC4)nc3)c(F)c2)C(=O)O1 [Compound 19]	0.5 µg/mL (≈ 1.07 µM)	0.25 µg/mL (≈ 0.533 µM)	0.5 µg/mL (≈ 1.07 µM)	2 µg/mL (≈ 4.26 µM)	2 µg/mL (≈ 4.26 µM)	0.5 µg/mL (≈ 1.07 µM)	0.25 µg/mL (≈ 0.533 µM)	2 µg/mL (≈ 4.26 µM)	0.5 µg/mL (≈ 1.07 µM)	0.5 µg/mL (≈ 1.07 µM)	0.25 µg/mL (≈ 0.533 µM)	1 µg/mL (≈ 2.13 µM)	–
C#CCN1C=NN(c2ccc(-c3ccc(N4C[C@H](CNC(C)=O)OC4=O)cc3F)cn2)CC1 [Compound 55]	1 µg/mL (≈ 2.22 µM)	1 µg/mL (≈ 2.22 µM)	2 µg/mL (≈ 4.44 µM)	4 µg/mL (≈ 8.88 µM)	4 µg/mL (≈ 8.88 µM)	4 µg/mL (≈ 8.88 µM)	2 µg/mL (≈ 4.44 µM)	4 µg/mL (≈ 8.88 µM)	2 µg/mL (≈ 4.44 µM)	4 µg/mL (≈ 8.88 µM)	2 µg/mL (≈ 4.44 µM)	–	–
